pIC50: −log10 of the molar value.
Tested on: 521955-158-R2-J5-PDC complex spheroid viability
Assay: Anticancer human tumor 521955-158-R2-J5-PDC patient-derived pancreatic carcinoma cell line growth inhibition
Settings: for pIC50: curve of first compound; for viability, T/C: stronger effect = lower value
Outline: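 Multicellular complex spheroids of tumor cells with human endothelial cells (HUVEC) and mesenchymal stem cells; the LSD1 inhibitor iadademstat was combined with standard-of-care or investigational agents. Top concentration at or near clinical Cmax, half-log dilutions; final DMSO ≤0.25%.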

[1] = second compound 0.1 µM, first compound 0.0316 µM
[2] = second compound 0.1 µM, first compound 0.1 µM
[3] = second compound 0.1 µM, first compound 0.316 µM
[4] = second compound 0.1 µM, first compound 1 µM
[5] = second compound 0.1 µM, first compound 3.16 µM
[6] = second compound 0.1 µM, first compound 10 µM
[7] = second compound 0.316 µM, first compound 0.0316 µM
[8] = second compound 0.316 µM, first compound 0.1 µM
[9] = second compound 0.316 µM, first compound 0.316 µM
[10] = second compound 0.316 µM, first compound 1 µM
[11] = second compound 0.316 µM, first compound 3.16 µM
[12] = second compound 0.316 µM, first compound 10 µM
[13] = second compound 1 µM, first compound 0.0316 µM
[14] = second compound 1 µM, first compound 0.1 µM
[15] = second compound 1 µM, first compound 0.316 µM
[16] = second compound 1 µM, first compound 1 µM
[17] = second compound 1 µM, first compound 3.16 µM
[18] = second compound 1 µM, first compound 10 µM
[19] = second compound 3.16 µM, first compound 0.0316 µM
[20] = second compound 3.16 µM, first compound 0.1 µM
[21] = second compound 3.16 µM, first compound 0.316 µM
[22] = second compound 3.16 µM, first compound 1 µM
[23] = second compound 3.16 µM, first compound 3.16 µM
[24] = second compound 3.16 µM, first compound 10 µM
[25] = second compound 10 µM, first compound 0.0316 µM
[26] = second compound 10 µM, first compound 0.1 µM
[27] = second compound 10 µM, first compound 0.316 µM
[28] = second compound 10 µM, first compound 1 µM
[29] = second compound 10 µM, first compound 3.16 µM
[30] = second compound 10 µM, first compound 10 µM
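Note: spheroids exposed to agents for seven days.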
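Throughout, for viability, T/C: percent of DMSO vehicle control luminescence viability.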

Structure (SMILES) | pIC50 (second compound 0.1 µM) | pIC50 (second compound 0.316 µM) | pIC50 (second compound 1 µM) | pIC50 (second compound 3.16 µM) | pIC50 (second compound 10 µM) | viability, T/C [1] | viability, T/C [2] | viability, T/C [3] | viability, T/C [4] | viability, T/C [7] | viability, T/C [8] | viability, T/C [9] | viability, T/C [10] | viability, T/C [13] | viability, T/C [14] | viability, T/C [15] | viability, T/C [16] | viability, T/C [19] | viability, T/C [20] | viability, T/C [21] | further results
CC(C)c1c(-c2ccccc2)nc2c(C#N)c[nH]n2c1=O + NC1CCC(NC2CC2c2ccccc2)CC1 | < 5.00 | < 5.00 | < 5.00 | < 5.00 | < 5.00 | 87.4% | 89.5% | 88.8% | 84.7% | 84.9% | 85.5% | 89.2% | 78.3% | 86.3% | 83.6% | 89.4% | 81.7% | 90% | 86.7% | 89.1% | viability, T/C [5]: 79%; viability, T/C [6]: 68.2%; viability, T/C [11]: 70.9%; viability, T/C [12]: 65%; viability, T/C [17]: 76.3%; viability, T/C [18]: 62.9%; viability, T/C [22]: 85.1%; viability, T/C [23]: 74.2%; viability, T/C [24]: 59.6%; viability, T/C [25]: 87.8%; viability, T/C [26]: 84.3%; viability, T/C [27]: 80.7%; viability, T/C [28]: 79.2%; viability, T/C [29]: 66.2%; viability, T/C [30]: 54.5%
CC1COCCN1c1cc(-c2ccnn2C)c2ccnc(-c3ccn[nH]3)c2n1 (stereo not given) + NC1CCC(NC2CC2c2ccccc2)CC1 | > 8.50 | > 8.50 | > 8.50 | > 8.50 | > 8.50 | 15.4% | 22.6% | 21.1% | 8.33% | 16.6% | 26.2% | 26.8% | 10.4% | 16.7% | 21.9% | 27.5% | 8.96% | 17.5% | 23.5% | 28.7% | viability, T/C (second compound 0.1 µM, first compound 0.00316 µM): 13.4%; viability, T/C (second compound 0.1 µM, first compound 0.01 µM): 12.4%; viability, T/C (second compound 0.316 µM, first compound 0.00316 µM): 14.7%; viability, T/C (second compound 0.316 µM, first compound 0.01 µM): 18.1%; viability, T/C (second compound 1 µM, first compound 0.00316 µM): 14.7%; viability, T/C (second compound 1 µM, first compound 0.01 µM): 14.4%; viability, T/C (second compound 3.16 µM, first compound 0.00316 µM): 17.2%; viability, T/C (second compound 3.16 µM, first compound 0.01 µM): 15.2%; viability, T/C [22]: 8.47%; viability, T/C (second compound 10 µM, first compound 0.00316 µM): 16.8%; viability, T/C (second compound 10 µM, first compound 0.01 µM): 16.9%; viability, T/C [25]: 16.7%; viability, T/C [26]: 24.8%; viability, T/C [27]: 29.1%; viability, T/C [28]: 7.2%
COc1ccc([C@@H](O)c2cc(-c3ncnc4cc(N5CCOCC5)ccc34)c(F)cc2Cl)nn1 + NC1CCC(NC2CC2c2ccccc2)CC1 | 6.08 | 6.01 | 6.19 | 6.10 | 6.13 | 81.5% | 80.9% | 66.5% | 42.9% | 74.4% | 72.3% | 65.3% | 45% | 77.4% | 81.8% | 57.8% | 42.6% | 80.7% | 80.7% | 65% | viability, T/C [5]: 38.6%; viability, T/C [6]: 22.7%; viability, T/C [11]: 38.8%; viability, T/C [12]: 22.4%; viability, T/C [17]: 30.9%; viability, T/C [18]: 19.7%; viability, T/C [22]: 45.8%; viability, T/C [23]: 29.1%; viability, T/C [24]: 19.3%; viability, T/C [25]: 80%; viability, T/C [26]: 79.5%; viability, T/C [27]: 64.5%; viability, T/C [28]: 42.2%; viability, T/C [29]: 30.5%; viability, T/C [30]: 15.4%

— PubChem BioAssay AID1918937 (Molecular Pharmacology Branch, DTP, NCI, 2023)
